Results: patent publication US20090005375A1, “ACETYL COENZYME A CARBOXYLASE INHIBITORS” (priority 2007, published 2009)

Tests used:
[1] = target: T1, Human ACC1 (Homo sapiens, UniProt Q13085); experiment: In vitro enzymatic ACC activity assay (malachite green), ACC1; assay type: biochemical; settings: recombinant His-tagged enzyme, absorbance at 620 nm
T1 construct: made in house; host or cells: SF-9 insect cells (baculovirus, pFAST-BacHTc)
Experimental: (§1) Provided in Example A is an in vitro enzymatic ACC activity assay for activity against ACC. The binding affinity of the test compound to ACC1 or ACC2 is determined by the changes in absorbance (at 620 nm); […]. It should be noted that a variety of other expression systems and hosts are also suitable for the expression of ACC, as would be readily appreciated by one of skill in the art.
Human ACC1 cDNA was amplified from human liver cDNA by polymerase chain reaction using primers; 5′[…]3′ (SEQ ID NO: 1) and 5′[…]3′ (SEQ ID NO: 2). The amplified DNA fragment was digested by restriction enzyme SalI and NotI, and cloned into pFAST-BacHTc (Invitrogen). This plasmid DNA was used for preparation of recombinant vaculovirus with BAC-TO-BAC Baculovirus Expression System (Invitrogen).
SF-9 cells were infected with the vaculovirus and cultured at 27° C. for 3 days. Harvested cells were homogenized in buffer A (25 mM HEPES (pH7.5), 130 mM NaCl, 1 mM EDTA, 25 mM sodium glycerophosphate, 1 mM sodium orthovanadate, 10% glycerol, complete protease inhibitor), and subjected to ultracentrifuge at 185700×g for 50 min at 4° C. ACC1 protein with 6×His-tag at the N-terminal was purified from the supernatant using Ni-NTA Super Flow Gel (QIAGEN). Eluted protein was dialysed against buffer B (50 mM HEPES (pH 7.5), 300 mM NaCl, 10 mM MgCl2, 10 mM tripotassium citrate, 2 mM dithiothreitol) and concentrated using Vivaspin20 ultrafiltration tube (Sartorius).
(§2) Malachite green solution was prepared by mixing 100 mL of solution A (0.12% malachite green in 5NH2SO4), 25 mL of solution B (7.5% ammonium molybdate) and 2 mL of solution C (11% TWEEN-20).
(§3) ACC1 was diluted to 8 μg/mL in reaction buffer (50 mM HEPES pH7.5, 10 mM MgCl2, 10 mM tripotassium citrate, 2 mM DTT, 0.75 mg/mL fatty acid free BSA) and 10 μL diluted enzyme solution was pored into each well of 384-well clear bottom plate. Test compound was diluted in the reaction buffer and 5 μL of the compound solution was added into each well, and the mixture was incubated at 30° C. for 60 minutes. Reaction was initiated by addition of 5 μL substrate solution (50 mM KHCO3, 200 μM ATP, 200 μM acetyl-CoA). After incubation at 30° C. for 20 minutes, reaction was terminated by addition of 5 μL malachite green solution and absorbance at 620 nm was measured.
(§4) Percent activity at each concentration of compound was calculated from the following equation: […]
(§5) Data were subjected to nonlinear regression analysis using GraphPad Prism Software (GraphPad Software Inc.) to obtain IC50 values.

[2] = target: T2, Human ACC2 (Homo sapiens, UniProt O00763); experiment: In vitro enzymatic ACC activity assay (malachite green), ACC2; assay type: biochemical; settings: recombinant His-tagged enzyme, absorbance at 620 nm
T2 construct: made in house; host or cells: SF-9 insect cells (baculovirus, pFAST-BacHTa)
T2 sequence (O00763 117-2458 limits assumed): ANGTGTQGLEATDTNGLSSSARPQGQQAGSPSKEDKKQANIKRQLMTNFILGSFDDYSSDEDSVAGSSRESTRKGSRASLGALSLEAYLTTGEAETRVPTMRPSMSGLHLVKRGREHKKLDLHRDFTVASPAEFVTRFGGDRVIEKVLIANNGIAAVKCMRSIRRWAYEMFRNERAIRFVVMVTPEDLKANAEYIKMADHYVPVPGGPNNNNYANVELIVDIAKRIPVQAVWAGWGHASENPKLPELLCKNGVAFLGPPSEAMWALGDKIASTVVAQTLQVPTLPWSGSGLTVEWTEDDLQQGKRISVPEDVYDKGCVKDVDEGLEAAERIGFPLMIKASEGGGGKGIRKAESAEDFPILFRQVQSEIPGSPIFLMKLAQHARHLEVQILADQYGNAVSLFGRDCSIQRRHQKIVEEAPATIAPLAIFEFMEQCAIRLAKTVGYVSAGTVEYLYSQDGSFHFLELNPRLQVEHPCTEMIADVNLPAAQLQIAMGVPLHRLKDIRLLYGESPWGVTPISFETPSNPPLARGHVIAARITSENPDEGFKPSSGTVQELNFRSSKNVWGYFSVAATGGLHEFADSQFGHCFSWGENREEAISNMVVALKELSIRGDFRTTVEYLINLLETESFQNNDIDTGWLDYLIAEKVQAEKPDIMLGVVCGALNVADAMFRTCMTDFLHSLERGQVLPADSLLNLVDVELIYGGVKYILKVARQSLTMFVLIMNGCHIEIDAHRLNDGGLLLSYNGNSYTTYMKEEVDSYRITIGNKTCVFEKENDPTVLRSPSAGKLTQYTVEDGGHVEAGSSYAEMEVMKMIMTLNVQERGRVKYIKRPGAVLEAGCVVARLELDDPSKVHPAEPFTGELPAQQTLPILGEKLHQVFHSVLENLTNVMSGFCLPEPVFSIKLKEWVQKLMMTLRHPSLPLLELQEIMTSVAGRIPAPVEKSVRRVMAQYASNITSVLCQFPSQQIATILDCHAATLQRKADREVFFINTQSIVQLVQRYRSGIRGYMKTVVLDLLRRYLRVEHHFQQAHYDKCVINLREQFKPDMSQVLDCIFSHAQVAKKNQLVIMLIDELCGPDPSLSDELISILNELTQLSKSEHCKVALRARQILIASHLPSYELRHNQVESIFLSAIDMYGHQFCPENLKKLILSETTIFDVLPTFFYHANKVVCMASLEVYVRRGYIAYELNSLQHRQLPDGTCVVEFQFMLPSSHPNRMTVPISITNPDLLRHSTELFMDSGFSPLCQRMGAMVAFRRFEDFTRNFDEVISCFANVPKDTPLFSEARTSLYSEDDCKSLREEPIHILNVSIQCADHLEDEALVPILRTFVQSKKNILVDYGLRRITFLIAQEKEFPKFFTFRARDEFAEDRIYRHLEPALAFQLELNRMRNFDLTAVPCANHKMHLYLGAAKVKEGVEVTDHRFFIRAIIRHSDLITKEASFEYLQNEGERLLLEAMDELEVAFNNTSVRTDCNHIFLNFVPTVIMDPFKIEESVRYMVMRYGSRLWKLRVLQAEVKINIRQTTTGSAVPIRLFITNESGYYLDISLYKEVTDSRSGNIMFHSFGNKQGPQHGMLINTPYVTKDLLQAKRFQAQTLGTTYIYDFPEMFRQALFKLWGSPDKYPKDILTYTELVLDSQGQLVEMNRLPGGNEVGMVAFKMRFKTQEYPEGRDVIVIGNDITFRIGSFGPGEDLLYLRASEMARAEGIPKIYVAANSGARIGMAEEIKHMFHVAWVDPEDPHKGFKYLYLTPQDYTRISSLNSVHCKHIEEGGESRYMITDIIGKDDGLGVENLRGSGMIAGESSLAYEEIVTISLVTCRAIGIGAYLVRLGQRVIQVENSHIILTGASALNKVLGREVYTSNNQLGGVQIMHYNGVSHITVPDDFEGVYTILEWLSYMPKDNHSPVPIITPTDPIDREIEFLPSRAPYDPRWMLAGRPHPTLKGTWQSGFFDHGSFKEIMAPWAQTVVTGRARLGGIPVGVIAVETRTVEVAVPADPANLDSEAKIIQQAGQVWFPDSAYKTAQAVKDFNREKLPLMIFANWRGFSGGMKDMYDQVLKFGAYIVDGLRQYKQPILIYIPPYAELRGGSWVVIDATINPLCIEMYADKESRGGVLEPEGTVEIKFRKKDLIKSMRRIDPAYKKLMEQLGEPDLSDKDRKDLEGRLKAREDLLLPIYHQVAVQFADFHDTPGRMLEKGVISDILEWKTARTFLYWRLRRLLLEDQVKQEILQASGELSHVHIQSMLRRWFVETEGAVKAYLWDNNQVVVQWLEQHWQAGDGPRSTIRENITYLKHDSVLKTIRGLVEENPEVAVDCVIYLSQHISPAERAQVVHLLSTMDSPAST
Experimental: as §1
Human ACC2 cDNA except coding region for mitochondria localization sequence was amplified from human skeletal muscle cDNA by polymerase chain reaction using primers; 5′[…]3′ (SEQ ID NO: 3) and 5′[…]3′ (SEQ ID NO: 4). The amplified DNA fragment was digested by SalI and AflII, and cloned into pFAST-BacHTa (Invitrogen). Preparation of recombinant vaculovirus, infection of the virus to SF-9 cells and purification of recombinant ACC2 protein with 6×His-tag at the N-terminal were performed in the same method as described above.
as §2, §3
ACC2 was diluted to 6.4 μg/mL in reaction buffer, and the activity was measured by the same method as described for ACC1.
as §4, §5

SMILES	IC50 [1]	IC50 [2]
CCNC(=O)Nc1sc2ccccc2c1C(=O)N1CCN(S(=O)(=O)c2ccccc2C#N)CC1 [Example 2, 1-(3-(4-(2-cyanophenylsulfonyl)piperazine-1-carbonyl)benzo[b]thiophen-2-yl)-3-ethylurea]	> 50 µM	> 50 µM
CCNC(=O)Nc1sc2ccccc2c1C(=O)N1CCN(S(=O)(=O)c2ccccc2)CC1 [Example 3, ethyl-3-(3-(4-(phenylsulfonyl)piperazine-1-carbonyl)benzo[b]thiophen-2-yl)urea]	> 50 µM	> 50 µM
CCNC(=O)Nc1sc2ccccc2c1C(=O)N1CCN(S(=O)(=O)c2ccc3c(c2)OCO3)CC1 [Example 4, 1-(3-(4-(benzo[d][1,3]dioxol-5-ylsulfonyl)piperazine-1-carbonyl)benzo[b]thiophen-2-yl)-3-ethylurea]	> 50 µM	5 to 50 µM
CCNC(=O)Nc1sc2ccccc2c1C(=O)N1CCN(S(=O)(=O)c2cccc(S(C)(=O)=O)c2)CC1 [Example 5, ethyl-3-(3-(4-(3-(methylsulfonyl)phenylsulfonyl)piperazine-1-carbonyl)benzo[b]thiophen-2-yl)urea]	5 to 50 µM	5 to 50 µM
CCNC(=O)Nc1sc2ccccc2c1C(=O)N1CCN(S(=O)(=O)c2ccc3nsnc3c2)CC1 [Example 6, 1-(3-(4-(benzo[c][1,2,5]thiadiazol-5-ylsulfonyl)piperazine-1-carbonyl)benzo[b]thiophen-2-yl)-3-ethylurea]	> 50 µM	> 50 µM
CCNC(=O)Nc1sc2ccccc2c1C(=O)N1CCN(S(=O)(=O)c2cccc(OC)c2)CC1 [Example 7, ethyl-3-(3-(4-(3-methoxyphenylsulfonyl)piperazine-1-carbonyl)benzo[b]thiophen-2-yl)urea]	> 50 µM	< 5 µM
CCNC(=O)Nc1sc2ccccc2c1C(=O)N1CCN(S(=O)(=O)c2cccc(NC(C)=O)c2)CC1 [Example 8, N-(3-(4-(2-(3-ethylureido)benzo[b]thiophene-3-carbonyl)piperazin-1-ylsulfonyl)phenyl)acetamide]	5 to 50 µM	< 5 µM
CCNC(=O)Nc1sc2ccccc2c1C(=O)N1CCN(S(=O)(=O)c2ccc(Cl)c(S(N)(=O)=O)c2)CC1 [Example 9, 2-chloro-5-(4-(2-(3-ethylureido)benzo[b]thiophene-3-carbonyl)piperazin-1-ylsulfonyl)benzenesulfonamide]	< 5 µM	< 5 µM
CCNC(=O)Nc1sc2ccccc2c1C(=O)N1CCN(S(=O)(=O)c2cccc(-c3csc(C)n3)c2)CC1 [Example 10, ethyl-3-(3-(4-(3-(2-methylthiazol-4-yl)phenylsulfonyl)piperazine-1-carbonyl)benzo[b]thiophen-2-yl)urea]	> 50 µM	5 to 50 µM
CCNC(=O)Nc1sc2ccccc2c1C(=O)N1CCN(S(=O)(=O)c2cccc(-c3nnc(C)o3)c2)CC1 [Example 11, ethyl-3-(3-(4-(3-(5-methyl-1,3,4-oxadiazol-2-yl)phenylsulfonyl)piperazine-1-carbonyl)benzo[b]thiophen-2-yl)urea]	5 to 50 µM	5 to 50 µM
CCNC(=O)Nc1sc2ccccc2c1C(=O)N1CCN(S(=O)(=O)c2cccc(-c3ccnc(C)n3)c2)CC1 [Example 12, ethyl-3-(3-(4-(3-(2-methylpyrimidin-4-yl)phenylsulfonyl)piperazine-1-carbonyl)benzo[b]thiophen-2-yl)urea]	5 to 50 µM	< 5 µM
CCNC(=O)Nc1sc2ccccc2c1C(=O)N1CCN(S(=O)(=O)c2cccc(-c3noc(C)n3)c2)CC1 [Example 13, ethyl-3-(3-(4-(3-(5-methyl-1,2,4-oxadiazol-3-yl)phenylsulfonyl)piperazine-1-carbonyl)benzo[b]thiophen-2-yl)urea]	< 5 µM	< 5 µM
CCNC(=O)Nc1sc2ccccc2c1C(=O)N1CCN(S(=O)(=O)c2ccc(N3CCOCC3)nc2)CC1 [Example 14, ethyl-3-(3-(4-(6-morpholinopyridin-3-ylsulfonyl)piperazine-1-carbonyl)benzo[b]thiophen-2-yl)urea]	< 5 µM	< 5 µM
CCNC(=O)Nc1sc2ccccc2c1C(=O)N1CCN(S(=O)(=O)c2cccc(OC(F)(F)F)c2)CC1 [Example 15, ethyl-3-(3-(4-(3-(trifluoromethoxy)phenylsulfonyl)piperazine-1-carbonyl)benzo[f]thiophen-2-yl)urea]	> 50 µM	> 50 µM
CCNC(=O)Nc1sc2ccccc2c1C(=O)N1CCN(S(=O)(=O)c2cccc([N+](=O)[O-])c2)CC1 [Example 16, ethyl-3-(3-(4-(3-nitrophenylsulfonyl)piperazine-1-carbonyl)benzo[b]thiophen-2-yl)urea]	> 50 µM	> 50 µM
CCNC(=O)Nc1sc2ccccc2c1C(=O)N1CCN(S(=O)(=O)C2CCS(=O)(=O)C2)CC1 (stereo not shown) [Example 17, ethyl-3-(3-(4-(1,1-dioxotetrahydrothiophen-3-ylsulfonyl)piperazine-1-carbonyl)benzo[b]thiophen-2-yl)urea]	5 to 50 µM	5 to 50 µM
CCNC(=O)Nc1sc2ccccc2c1C(=O)N1CCN(S(=O)(=O)c2ccc3c(c2)OCCCO3)CC1 [Example 18, 1-(3-(4-(3,4-dihydro-2H-benzo[b][1,4]dioxepin-7-ylsulfonyl)piperazine-1-carbonyl)benzo[b]thiophen-2-yl)-3-ethylurea]	< 5 µM	< 5 µM
CCNC(=O)Nc1sc2ccccc2c1C(=O)N1CCN(S(=O)(=O)c2ccc(OC)c(NC(C)=O)c2)CC1 [Example 19, N-(5-(4-(2-(3-ethylureido)benzo[b]thiophene-3-carbonyl)piperazin-1-ylsulfonyl)-2-methoxyphenyl)acetamide]	< 5 µM	< 5 µM
CCNC(=O)Nc1sc2ccccc2c1C(=O)N1CCN(S(=O)(=O)c2cccc(C(C)=O)c2)CC1 [Example 20, 1-(3-(4-(3-acetylphenylsulfonyl)piperazine-1-carbonyl)benzo[b]thiophen-2-yl)-3-ethylurea]	< 5 µM	< 5 µM
CCNC(=O)Nc1sc2ccccc2c1C(=O)N1CCN(S(=O)(=O)c2ccc3ncsc3c2)CC1 [Example 21, 1-(3-(4-(benzo[d]thiazol-6-ylsulfonyl)piperazine-1-carbonyl)benzo[b]thiophen-2-yl)-3-ethylurea]	< 5 µM	< 5 µM
CCNC(=O)Nc1sc2ccccc2c1C(=O)N1CCN(S(=O)(=O)c2ccc(N3CCCC3=O)cc2)CC1 [Example 22, ethyl-3-(3-(4-(4-(2-oxopyrrolidin-1-yl)phenylsulfonyl)piperazine-1-carbonyl)benzo[b]thiophen-2-yl)urea]	> 50 µM	< 5 µM
CCNC(=O)Nc1sc2ccccc2c1C(=O)N1CCN(S(=O)(=O)c2ccc(OC)c(OC)c2)CC1 [Example 23, 1-(3-(4-(3,4-dimethoxyphenylsulfonyl)piperazine-1-carbonyl)benzo[b]thiophen-2-yl)-3-ethylurea]	< 5 µM	< 5 µM
CCNC(=O)Nc1sc2ccccc2c1C(=O)N1CCN(S(=O)(=O)c2ccc(NC(C)=O)cc2)CC1 [Example 24, N-(4-(4-(2-(3-ethylureido)benzo[b]thiophene-3-carbonyl)piperazin-1-ylsulfonyl)phenyl)acetamide]	< 5 µM	< 5 µM
